# According to ChEMBL document CHEMBL4270597, “Donepezil-butylated hydroxytoluene (BHT) hybrids as Anti-Alzheimer's disease agents with cholinergic, antioxidant, and neuroprotective properties” (Eur J Med Chem, 2018):
# Active and inactive are the calls of the source. The calls are words filed in the database; no cut-off is given here.
# How the values were obtained:
# [1] = tested on: BV-2; test: Antineuroinflammatory activity in mouse BV2 cells assessed as inhibition of LPS-induced NO production at 10 to 30 uM after 24 hrs by Griess assay; type: functional, cell-based
# [2] = tested on: PC-12; test: Neuroprotective activity against H2O2-induced oxidative stress in rat PC12 cells assessed as increase in cell viability pretreated for 4 hrs followed by H2O2 challenge measured after 24 hrs by MTT assay; type: functional, cell-based
# [3] = tested on: Mus musculus; test: Reversal of scopolamine-induced memory impairment in ICR mouse assessed as increase in step-through latency time administered orally for 10 consecutive days and 60 mins prior to training trial followed by scopolamine challenge at 30 mins post dose measured 24 hrs after training trial by passive avoidance test; type: functional, organism-based
# [4] = Effective permeability of the compound at […] after 16 hrs by PAMPA-BBB assay; type: ADME; conditions: read-out: Peff
# [5] = tested on: Mus musculus; test: Toxicity in ICR mouse assessed as diarrhea at 5 to 10 mg/kg, po administered for 10 consecutive days; type: organism-based; conditions: in vivo
# [6] = tested on: PC-12; test: Reversal of H2O2-induced calcium overload in rat PC12 cells assessed as mean fluorescence intensity at 5 uM after 48 hrs by Fluo-3/AM probe based flow cytometry (reference value: 454014); type: functional
# [7] = tested on: PC-12; test: Neuroprotective activity against H2O2-induced apoptosis in rat PC12 cells assessed as necrotic cells at 2.5 uM after 24 hrs by Annexin V-FITC/propidium iodide staining-based flow cytometry (reference value: 4.9%); type: functional
# [8] = tested on: BV-2; test: Inhibition of LPS-induced intracellular ROS production in mouse BV2 cells assessed as mean fluorescence intensity at 5 uM incubated with LPS for 18 hrs followed by compound addition measured after 36 hrs by DCFH-DA probe based flow cytometry (reference value: 493530); type: functional
# [9] = tested on: Mus musculus; test: Acute toxicity in mouse assessed as abnormal changes in water or food consumption at 677 to 2000 mg/kg, po measured continuously for first 4 hrs and intermittently for next 24 hrs and occasionally for 14 days; type: organism-based; conditions: in vivo
# [10] = tested on: PC-12; test: Neuroprotective activity against H2O2-induced apoptosis in rat PC12 cells assessed as late apoptotic cells at 2.5 uM after 24 hrs by Annexin V-FITC/propidium iodide staining-based flow cytometry (reference value: 25.3%); type: functional
# [11] = target: Amyloid-beta precursor protein (Homo sapiens) (UniProt P05067); test: Inhibition of self-induced amyloid beta 42 (unknown origin) aggregation at 20 uM incubated for 46 to 48 hrs by thioflavin-T fluorescence assay relative to control
# Chain of Amyloid-beta precursor protein (Homo sapiens) (P05067 whole entry): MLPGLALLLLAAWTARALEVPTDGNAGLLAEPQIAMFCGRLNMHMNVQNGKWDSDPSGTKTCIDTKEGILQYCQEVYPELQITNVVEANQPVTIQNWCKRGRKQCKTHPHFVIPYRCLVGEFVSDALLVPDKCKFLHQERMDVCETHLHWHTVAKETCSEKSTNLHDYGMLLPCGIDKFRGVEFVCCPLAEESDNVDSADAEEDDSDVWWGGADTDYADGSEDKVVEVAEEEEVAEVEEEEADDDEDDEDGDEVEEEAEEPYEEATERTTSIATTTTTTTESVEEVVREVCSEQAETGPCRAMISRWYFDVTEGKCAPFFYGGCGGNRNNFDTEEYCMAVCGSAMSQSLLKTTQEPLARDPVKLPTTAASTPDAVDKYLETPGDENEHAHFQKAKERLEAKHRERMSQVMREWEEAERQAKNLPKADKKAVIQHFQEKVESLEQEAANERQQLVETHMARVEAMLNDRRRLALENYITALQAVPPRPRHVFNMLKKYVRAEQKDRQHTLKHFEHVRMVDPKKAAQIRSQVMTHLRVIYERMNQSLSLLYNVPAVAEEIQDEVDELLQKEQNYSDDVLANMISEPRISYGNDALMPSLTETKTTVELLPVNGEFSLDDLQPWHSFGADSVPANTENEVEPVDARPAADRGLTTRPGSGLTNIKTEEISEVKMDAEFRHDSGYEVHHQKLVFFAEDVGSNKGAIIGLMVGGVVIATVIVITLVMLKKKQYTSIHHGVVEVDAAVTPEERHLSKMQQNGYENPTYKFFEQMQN
# [12] = tested on: PC-12; test: Neuroprotective activity against H2O2-induced apoptosis in rat PC12 cells assessed as viable cells at 2.5 uM after 24 hrs by Annexin V-FITC/propidium iodide staining-based flow cytometry (reference value: 68.4%); type: functional; conditions: PC-12, 24 h, read-out: Activity
# [13] = tested on: PC-12; test: Neuroprotective activity against H2O2-induced apoptosis in rat PC12 cells assessed as late apoptotic cells at 10 uM after 24 hrs by Annexin V-FITC/propidium iodide staining-based flow cytometry (reference value: 25.3%); type: functional
# [14] = tested on: Mus musculus; test: Acute toxicity in mouse assessed as abnormal changes in lung at 2000 mg/kg, po measured continuously for first 4 hrs and intermittently for next 24 hrs and occasionally for 14 days by hematoxylin and eosin staining based microscopic method; type: organism-based; conditions: in vivo
# [15] = Half life in Sprague-Dawley rat liver microsomes in presence of NADPH by UPLC/MS analysis; conditions: liver microsomes
# [16] = target: Acetylcholinesterase (Homo sapiens, UniProt P22303); test: Mixed-type inhibition of human AChE using acetylthiocholine chloride as substrate incubated for 5 mins followed by substrate addition by Lineweaver-Burk plot analysis
# Chain of Acetylcholinesterase (P22303 whole entry): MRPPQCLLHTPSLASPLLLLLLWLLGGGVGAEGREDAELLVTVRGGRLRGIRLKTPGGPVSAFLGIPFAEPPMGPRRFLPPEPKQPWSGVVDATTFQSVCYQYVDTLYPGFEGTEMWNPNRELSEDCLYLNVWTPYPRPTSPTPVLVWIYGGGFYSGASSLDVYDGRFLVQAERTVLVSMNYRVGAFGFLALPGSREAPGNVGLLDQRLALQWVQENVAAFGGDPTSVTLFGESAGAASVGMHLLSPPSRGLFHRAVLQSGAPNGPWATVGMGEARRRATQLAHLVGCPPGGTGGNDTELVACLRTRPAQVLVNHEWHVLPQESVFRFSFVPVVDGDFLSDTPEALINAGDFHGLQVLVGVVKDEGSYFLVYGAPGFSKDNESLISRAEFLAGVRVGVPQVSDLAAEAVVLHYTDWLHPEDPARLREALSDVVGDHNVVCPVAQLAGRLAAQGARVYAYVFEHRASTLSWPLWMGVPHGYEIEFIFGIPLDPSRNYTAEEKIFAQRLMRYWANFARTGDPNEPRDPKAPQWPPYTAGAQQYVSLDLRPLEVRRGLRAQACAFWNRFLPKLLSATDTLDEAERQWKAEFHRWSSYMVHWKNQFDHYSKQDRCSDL
# [17] = tested on: PC-12; test: Neuroprotective activity against H2O2-induced apoptosis in rat PC12 cells assessed as viable cells at 10 uM after 24 hrs by Annexin V-FITC/propidium iodide staining-based flow cytometry (reference value: 68.4%); type: functional; conditions: PC-12, 24 h, read-out: Activity
# [18] = target: T1, Amine oxidase [flavin-containing] B (Homo sapiens, UniProt P27338); test: Inhibition of human MAO-B using p-tyramine as substrate incubated for 15 mins followed by substrate addition measured for 20 mins by fluorescence assay
# T1 sequence (P27338 whole entry): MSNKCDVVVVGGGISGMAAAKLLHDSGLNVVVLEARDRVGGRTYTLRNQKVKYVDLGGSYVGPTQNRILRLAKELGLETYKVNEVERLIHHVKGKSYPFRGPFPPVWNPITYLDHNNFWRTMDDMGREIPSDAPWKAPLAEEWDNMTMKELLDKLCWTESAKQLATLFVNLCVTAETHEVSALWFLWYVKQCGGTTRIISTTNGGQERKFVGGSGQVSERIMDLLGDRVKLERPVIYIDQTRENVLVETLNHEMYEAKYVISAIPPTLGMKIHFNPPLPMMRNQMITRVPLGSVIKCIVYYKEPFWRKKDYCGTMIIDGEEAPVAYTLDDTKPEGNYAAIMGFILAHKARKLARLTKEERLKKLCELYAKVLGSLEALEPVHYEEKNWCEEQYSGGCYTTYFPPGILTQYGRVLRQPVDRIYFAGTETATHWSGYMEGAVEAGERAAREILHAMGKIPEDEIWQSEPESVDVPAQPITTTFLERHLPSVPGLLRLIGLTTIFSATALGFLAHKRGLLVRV
# [19] = tested on: PC-12; test: Neuroprotective activity against H2O2-induced apoptosis in rat PC12 cells assessed as early apoptotic cells at 10 uM after 24 hrs by Annexin V-FITC/propidium iodide staining-based flow cytometry (reference value: 1.4%); type: functional
# [20] = tested on: PC-12; test: Reversal of H2O2-induced calcium overload in rat PC12 cells assessed as mean fluorescence intensity at 10 uM after 48 hrs by Fluo-3/AM probe based flow cytometry (reference value: 454014); type: functional
# [21] = tested on: Mus musculus; test: Acute toxicity in mouse assessed as abnormal changes in heart at 2000 mg/kg, po measured continuously for first 4 hrs and intermittently for next 24 hrs and occasionally for 14 days by hematoxylin and eosin staining based microscopic method; type: organism-based; conditions: in vivo
# [22] = tested on: PC-12; test: Neuroprotective activity against H2O2-induced apoptosis in rat PC12 cells assessed as viable cells at 5 uM after 24 hrs by Annexin V-FITC/propidium iodide staining-based flow cytometry (reference value: 68.4%); type: functional; conditions: PC-12, 24 h, read-out: Activity
# [23] = tested on: Mus musculus; test: Acute toxicity in mouse assessed as abnormal changes in brain at 2000 mg/kg, po measured continuously for first 4 hrs and intermittently for next 24 hrs and occasionally for 14 days by hematoxylin and eosin staining based microscopic method; type: organism-based; conditions: in vivo
smiles,measurement,setting,value
CC(C)(C)c1cc(/C=C/C(=O)NCCC2CCN(Cc3ccccc3F)CC2)cc(C(C)(C)C)c1O,inhibition,[1],Active
same,Activity,[2],Dose-dependent effect
same,Activity,[3],Dose-dependent effect
same,Papp at 16 h,[4],5.5 ×10⁻⁶ cm/s
same,Activity,[5],Non-Toxic
same,Flu intensity,[6],251576
same,Activity,[7],3.5%
same,Flu intensity,[8],479700
same,Activity,[9],Non-Toxic
same,Activity,[10],14.8%
same,inhibition,[11],43.5 to 56.7%
same,viability at 2.5 µM,[12],81.5%
same,Activity,[13],5.7%
same,Activity,[14],Non-Toxic
same,half-life,[15],1.49 h
same,Ki,[16],1.4 µM
same,viability at 10 µM,[17],92.4%
same,IC50,[18],7.4 µM
same,Activity,[19],0.3%
same,Flu intensity,[20],157903
same,Activity,[21],Non-Toxic
same,viability at 5 µM,[22],88.3%
same,Activity,[23],Non-Toxic
